{"source": "patent US4863748A", "about": "“Dietary products and uses comprising methylsulfonylmethane” (priority 1986, dated 1989)", "key": {"[1]": {"assay": "Tolerance of intravenous infusion", "format": "in vivo, human patients", "settings": "for side effect at infusion rate as high as 2 gm/kg/hr: i.v., some patients", "experimental": "The amount of methylsulfonylmethane intravenously administered can vary substantially because of its lack of toxicity and adverse side effects. Individual doses can vary from about 0.01 to 2 gm/kg, preferably from about 0.1 to 1 gm/kg, on a body weight basis, the usual dosage range is about 0.25 to 0.75 gm/kg, preferably about 0.5 gm/kg.\nWhen large amounts are administered, e.g., in the order of 1 g/kg of body weight or more, i.e., infusion of 5% to 10% solution of methylsulfonylmethane in water, physiological saline or 5% dextrose is preferred. The rate of administration is preferably no greater than about 1 gm/kg/hr, although infusion rates as high as 2 gm/kg/hr are tolerated by patients, except for light-headedness of the type experienced by some blood donors is experienced by some patients at this rate.\nSuch massive i.v. administrations can be repeated as frequently as every 24 hours."}, "arthritic patients": {"test_system": "arthritic patients", "assay": "Chemical profile of arthritic patients", "format": "in vivo, human", "settings": "drop from 600+", "source_text": "8. Improving the chemical profile of arthritic patients, e.g., providing relief from pain and stiffness, reduced swelling and inflammation, coupled with a return of blood chemistry towards normalcy, for example, a RH titer drop from 600+to 300 or lower."}, "coat [2]": {"test_system": "coat", "assay": "Coat quality of dogs (Example 7)", "format": "in vivo, dog (female labradors)", "settings": "5% in drinking water, 45 days; three individuals", "source_text": "The coats of animals A and B of Example 6 were examined by three individuals."}, "coat [3]": {"test_system": "coat", "assay": "Coat quality of guinea pigs (Example 8)", "format": "in vivo", "settings": "2 wt. % in water, 28 days", "source_text": "Ten 4-week old guinea pigs were housed in individual metal cages in a standard temperature room with a 12-hour light/dark cycle and acclimated over a 5-day period of feeding Purina guinea pig chow with water ad lib.\nOn day six, five animals were marked on the belly with red and the other five with blue water-insoluble ink. The marks were not visible when the animals were observed from above. Each animal after marking was returned to its cage and a corresponding red or blue tape affixed to the animal's watering bottle. The red marked bottles were maintained with tap water and the blue marked bottles were filled with tap water containing 2 wt. % methylsulfonylmethane. During a 28 day period, the animals were fed and allowed access to their water or water+2% methylsulfonylmethane, respectively, ad lib. On day 28, the animals were placed in common confinement on a well lighted table. Four individuals, totally unfamiliar with the test and its purpose were asked to evaluate the coat of each animal. Animals at each evaluation were removed by the evaluator and placed into one of two groups based on better or poorer quality of the animal's coat without seeing the color on the animal's belly."}, "[4]": {"test_system": "gum inflammation and oral mucosa", "assay": "Oral hygiene (Example 11)", "format": "in vivo, human"}, "[5]": {"assay": "Pin worm (Enterobius) infection in laboratory mice (Examples 19 and 28(c))", "format": "in vivo", "settings": "mouse, blood, po; one animal examined; 2% by wt. in feed and drinking water; read-out: blood level of methylsulfonylmethane", "source_text": "(§1) Laboratory mice determined by fecal cast examination to have pin worms were given commercial feed and drinking water, ad lib, both of which contained 2% by wt. methylsulfonylmethane. […] The blood level of methylsulfonylmethane in one animal examined exceeded 30 ppm.\n(§2) Laboratory mice determined by fecal cast examination to have pin worms were given 2% by wt. of methylsulfonylmethane in both their commercial feed and drinking water, ad lib."}, "Enterobius (pin worms)": {"test_system": "Enterobius (pin worms)", "assay": "Pin worm (Enterobius) infection in laboratory mice (Examples 19 and 28(c))", "format": "in vivo", "settings": "2% by wt. in feed and drinking water", "source_text": "as §1, §2"}, "acute pain": {"test_system": "acute pain", "assay": "Acute pain (Example 21)", "format": "in vivo, human", "settings": "single 1.5 gm dose; two 1 gm doses at 4-hour intervals, oral"}, "leg cramps": {"test_system": "leg cramps", "assay": "Leg cramps in marathon runner (Example 27)", "format": "in vivo, human", "settings": "15 mg/kg/day, at least 7 days", "experimental": "Before a marathon race, administer methylsulfonylmethane to the runner for at least 7 days at the rate of 15 mg/kg/day."}, "intractable pain": {"test_system": "intractable pain", "assay": "Pain in humans (Example 31)", "format": "in vivo, human", "source_text": "The following patients suffering from intractable pain were given methylsulfonylmethane orally in the amounts and for the period of time set forth in the table below: […]"}, "[6]": {"test_system": "sharp pain spasms in the lower abdominal region", "assay": "Acute pain, comparison with codeine, subject one (Example 33)", "format": "in vivo, human", "experimental": "Codeine and methylsulfonylmethane were compared for the relief of pain in subject one, a person who had sharp pain spasms in the lower abdominal region. Subject's appendix had been removed. Pain began after suffering an accidental traumatic blow to the abdomen during a volley ball game. Pyelogram examination indicated no obstruction. […] Codeine (2) plus 1/4 grain with aspirin every 4 hours, provided some relief. The codeine/aspirin was discontinued and 1 g methylsulfonylmethane in warm water was given. A half-hour later all discomfort ceased. A second gram of methylsulfonylmethane in water was given 4 hours later, after which the subject continued pain free."}, "[7]": {"test_system": "t-lymphocyte dependent and t-lymphocyte independent immune responses", "assay": "Humoral immune responses in mice (Example 37)", "format": "in vivo, balb/c strain mice", "settings": "3% by wt. in water", "experimental": "Laboratory mice genetically predisposed to lymphoma development were selected for this test. Humoral immunity participation was measured as was the effect of methylsulfonylmethane on an animal's life span. One set of 12 mice were maintained as controls. The treated (T) group received identical treatment except for their water given ad lib, which contained 3% by wt. of methylsulfonylmethane in solution.\nBy month 4 of this test, all controls were dead, due to lymphoma development. […] These normal balb/c strain mice of group T were tested for t-lymphocyte dependent (t-d) and t-lymphocyte independent (t-i) immune responses. […] Based on these preliminary results, at high enough daily rates of ingestion, methylsulfonylmethane stimulates humoral immunity thereby providing protection to otherwise lethal spontaneous mouse lymphomas."}, "[8]": {"test_system": "urinary taurine secretion", "settings": "man; cited from earlier work"}}, "data": [{"smiles": "CS(C)(=O)=O", "note": "[methylsulfonylmethane]", "values": [{"measurement": "tolerated infusion rate", "setting": "[1]; i.v. infusion", "result": "≤ 2", "unit": "gm/kg/hr"}, {"measurement": "side effect at infusion rate as high as 2 gm/kg/hr", "setting": "[1]", "result": "light-headedness"}, {"measurement": "side effect at infusion rate as high as 2 gm/kg/hr", "setting": "[1]; listed as dimethylsulfone", "result": "transient light-headedness"}, {"measurement": "RH titer", "setting": "arthritic patients", "result": "≤ 300"}, {"measurement": "coat quality (thickness and shiny appearance)", "setting": "coat [2]", "result": "superior"}, {"measurement": "animals with blue belly mark selected as superior by fourth evaluator", "setting": "coat [3]", "result": "three"}, {"measurement": "evaluators selecting the five treated animals as having superior coats", "setting": "coat [3]", "result": "Three of the four evaluators"}, {"measurement": "sense of taste", "setting": "[4]; critical observers", "result": "improved"}, {"measurement": "sense of smell", "setting": "[4]; gargle, two subjects with restricted sense of smell", "result": "sharpening of this sense"}, {"measurement": "bad breath associated with smoking or food", "setting": "[4]; in water, saline solution or oral hygiene product", "result": "reduced or eliminated"}, {"measurement": "viscosity of the mucous", "setting": "[4]; subjects with viscid mucoid nasopharyngeal discharge", "result": "reduction in the viscosity of the mucous"}, {"measurement": "concentration at 408 h", "setting": "[5]", "result": "> 30000", "unit": "ng/mL"}, {"measurement": "worms and eggs in fecal cast after 17 days", "setting": "Enterobius (pin worms)", "result": "free of worms and eggs"}, {"measurement": "relief of acute mid-back pain (calculi obstructed ureter) and lower abdomen pain spasms", "setting": "acute pain", "result": "proven useful in relieving acute pain"}, {"measurement": "likelihood of severe leg cramp during or after race", "setting": "leg cramps", "result": "significantly reduced"}, {"measurement": "Results", "setting": "intractable pain; A. B., 69 F, Deg. Arth., 0.5 bid × 18 months", "result": "pain relief"}, {"measurement": "Results", "setting": "intractable pain; B. A., 63 F, Deg. Arth., 0.25 g qid", "result": "pain relief"}, {"measurement": "Results: pain relief", "setting": "intractable pain; C. A., 62 M, Bursitis Chronic, 0.25 g bid × 3 months", "result": 50, "unit": "%"}, {"measurement": "Results", "setting": "intractable pain; D. B., 35 M, Low back pain, 0.5 g qid × 9 months", "result": "pain relief"}, {"measurement": "Results: muscle pain", "setting": "intractable pain; I. B., 62 F, Multiple Sclerosis, 0.5 bid × 18 months", "result": "reduction"}, {"measurement": "Results", "setting": "intractable pain; M. A., 55 F, Rh. Arth., 0.25 g bid × 9 months", "result": "pain relief"}, {"measurement": "Results", "setting": "intractable pain; N. B., 62 M, Tendonitis, 0.25 g qid", "result": "reduced pain"}, {"measurement": "Results", "setting": "intractable pain; P. A., 61 F, Deg. Arth., 1 g 4×/day × 19 months", "result": "pain relief"}, {"measurement": "time until all discomfort ceased", "setting": "[6]; 1 g in warm water, oral", "result": "A half-hour"}, {"measurement": "pain after second gram", "setting": "[6]; second gram 4 hours later", "result": "pain free"}, {"measurement": "primary IgM and secondary IgG responses to sheep erythrocytes (SRBC)", "setting": "[7]", "result": "significantly enhancement"}, {"measurement": "tnp-ficoll response", "setting": "[7]", "result": "significant suppression"}, {"measurement": "urinary taurine secretion produced by aromatic hydrocarbons", "setting": "[8]", "result": "enhances"}]}]}
